Like-named read-outs stand apart in the source and are kept apart here.
Tests used:
HDAC2 = target: T1, HDAC2 (Homo sapiens, UniProt Q92769); assay: HDAC enzyme assay, HDAC2 (fluorescence, tripeptide substrate/trypsin); format: biochemical; details: 0.2 ng/ml enzyme, 10 μM substrate, 10 min preincubation
T1 construct: purchased BPS Biosciences
Description: (§1) Compounds for testing were diluted in […] to 50 fold the final concentration and a ten-point three-fold dilution series was made. The compounds were diluted in assay buffer (50 mM HEPES, pH 7.4, 100 mM KCl, 0.001% Tween-20, 0.05% BSA, 20 μM TCEP) to 6-fold their final concentration. The HDAC enzymes (purchased from BPS Biosciences) were diluted to 1.5-fold their final concentration in assay buffer. The tripeptide substrate and trypsin at 0.05 μM final concentration were diluted in assay buffer at 6-fold their final concentration. The final enzyme concentrations used in these assays were 3.3 ng/ml (HDAC1), 0.2 ng/ml (HDAC2) and 0.08 ng/ml (HDAC3). The final substrate concentrations used were 16 μM (HDAC1), 10 μM (HDAC2) and 17 μM (HDAC3).
(§2) Five μl of compounds and 20 μl of enzyme were added to wells of a black, opaque 384 well plate in duplicate. Enzyme and compound were incubated together at room temperature for 10 minutes. Five μl of substrate was added to each well, the plate was shaken for 60 seconds and placed into a Victor 2 microtiter plate reader. The development of fluorescence was monitored for 60 min and the linear rate of the reaction was calculated. The IC50 was determined using Graph Pad Prism by a four parameter curve fit.

[1] = Pharmacokinetics in male SD rats (cassette dosing, IV and PO), plasma level by LC/MS/MS; format: in vivo; details: male SD rat; for bioavailability: dose adjusted PO AUC (5 mg/kg) to IV AUC (1 mg/kg), read-out: F % (oral bioavailability); for CL renal: read-out: IV Clr.
Description: Male SD rats were fasted overnight. Compounds of the invention were dissolved in dimethyl acetamide at 10 times the final concentration, then Solutol HS 15 (BASF) was added to a final concentration of 10%. Finally, 80% saline was added and vortexed to achieve a clear solution. For the IV dosing three animals were injected via the foot dorsal vein with 1 mg/kg compound. For the PO dosing 5 mg/kg of compound was delivered by oral gavage. Blood was collected via the tail vein into K2EDTA tubes at 5 minutes, 15 minutes, 30 minutes, 1 hour, 2 hours, 4 hours, 8 hours and 24 hours after dosing. The blood was centrifuged at 2000 g for 5 minutes at 4° C. to obtain plasma. The plasma was extracted with acetonitrile and the level of compound was analyzed by LC/MS/MS. The level of compound in plasma was calculated from a standard curve in rat plasma. The IV clearance (L/h/kg) and area under the curve (h*ng/mL) were calculated using WinNonLin software. The dose adjusted area under the curve for the IV and oral dosing were used to calculate the oral bioavailability.
Pharmacokinetic properties were assessed in a rat cassette dosing experiment. The IV clearance (IV Clr.) is in units of L/hr/kg. The oral maximum plasma concentration (PO Cmax) is in units of ng/ml. The oral plasma half-life (PO T½) is in units of hours. The oral area under the curve (PO AUC) is in units of hours*ng/ml. The fraction absorbed by the oral route (F %) is a percentage of the oral area under the curve to the IV area under the curve, dose adjusted.

HDAC3 = target: T2, HDAC3 (Homo sapiens, UniProt O15379); assay: HDAC enzyme assay, HDAC3 (fluorescence, tripeptide substrate/trypsin); format: biochemical; details: 0.08 ng/ml enzyme, 17 μM substrate, 10 min preincubation
T2 construct: purchased BPS Biosciences
Description: as §1, §2

HDAC1 = target: T3, HDAC1 (Homo sapiens, UniProt Q13547); assay: HDAC enzyme assay, HDAC1 (fluorescence, tripeptide substrate/trypsin); format: biochemical; details: 3.3 ng/ml enzyme, 16 μM substrate, 10 min preincubation
T3 construct: purchased BPS Biosciences
Description: as §1, §2

[2] = PO 5 mg/kg oral gavage, read-out: PO AUC
[3] = PO 5 mg/kg oral gavage, read-out: PO t1/2

T1 sequence (Q92769 whole entry): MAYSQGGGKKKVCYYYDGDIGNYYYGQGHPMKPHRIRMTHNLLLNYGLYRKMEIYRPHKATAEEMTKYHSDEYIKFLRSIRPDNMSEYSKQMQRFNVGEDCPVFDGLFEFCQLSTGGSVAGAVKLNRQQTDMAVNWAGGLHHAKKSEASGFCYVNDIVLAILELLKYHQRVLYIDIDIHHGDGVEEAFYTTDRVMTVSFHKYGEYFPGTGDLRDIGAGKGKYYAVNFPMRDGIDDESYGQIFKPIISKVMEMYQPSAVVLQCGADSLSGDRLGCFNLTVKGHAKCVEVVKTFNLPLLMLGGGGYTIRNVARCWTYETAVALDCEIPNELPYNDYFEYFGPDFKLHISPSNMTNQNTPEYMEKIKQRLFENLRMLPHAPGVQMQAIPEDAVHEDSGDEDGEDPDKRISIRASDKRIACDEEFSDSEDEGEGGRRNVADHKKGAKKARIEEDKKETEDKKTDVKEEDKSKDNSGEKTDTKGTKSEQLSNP
T2 sequence (O15379 whole entry): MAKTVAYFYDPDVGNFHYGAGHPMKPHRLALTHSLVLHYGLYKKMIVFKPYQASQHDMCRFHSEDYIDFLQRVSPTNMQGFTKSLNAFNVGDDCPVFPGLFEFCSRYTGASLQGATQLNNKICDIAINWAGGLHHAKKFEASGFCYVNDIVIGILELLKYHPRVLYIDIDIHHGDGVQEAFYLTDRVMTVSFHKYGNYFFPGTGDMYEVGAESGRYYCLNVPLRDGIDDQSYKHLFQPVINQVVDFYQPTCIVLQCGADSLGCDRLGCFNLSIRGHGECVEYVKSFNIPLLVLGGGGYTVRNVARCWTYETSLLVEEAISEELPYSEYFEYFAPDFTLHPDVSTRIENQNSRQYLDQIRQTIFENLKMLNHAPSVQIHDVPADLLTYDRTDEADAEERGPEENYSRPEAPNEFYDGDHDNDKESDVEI
T2 sequence (Q9Y618 395-489 partner limits assumed): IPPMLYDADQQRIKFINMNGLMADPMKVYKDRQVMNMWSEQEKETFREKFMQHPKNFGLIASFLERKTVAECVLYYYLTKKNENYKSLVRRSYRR
T3 sequence (Q13547 whole entry): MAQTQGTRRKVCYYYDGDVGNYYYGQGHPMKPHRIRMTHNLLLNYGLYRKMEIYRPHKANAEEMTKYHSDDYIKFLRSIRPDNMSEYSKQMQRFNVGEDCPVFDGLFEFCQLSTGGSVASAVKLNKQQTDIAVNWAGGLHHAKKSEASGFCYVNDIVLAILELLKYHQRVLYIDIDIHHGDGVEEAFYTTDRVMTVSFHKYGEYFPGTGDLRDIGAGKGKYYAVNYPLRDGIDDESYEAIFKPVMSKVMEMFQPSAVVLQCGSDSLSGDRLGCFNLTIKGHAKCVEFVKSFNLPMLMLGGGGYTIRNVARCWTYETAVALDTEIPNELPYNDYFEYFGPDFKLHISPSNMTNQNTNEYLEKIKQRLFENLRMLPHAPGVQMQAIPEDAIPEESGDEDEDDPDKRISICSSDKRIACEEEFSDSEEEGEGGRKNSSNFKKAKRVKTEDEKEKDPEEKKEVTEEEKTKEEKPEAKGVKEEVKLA

Compound	IC50 (HDAC2)	IV clearance ([1]; IV 1 mg/kg)	AUC ([1]; IV 1 mg/kg, read-out: IV AUC)	half-life ([1]; IV 1 mg/kg, read-out: IV t1/2)	Cmax ([1]; PO 5 mg/kg oral gavage)	AUC [1, 2]	half-life [1, 3]	bioavailability [1]	IC50 (HDAC3)	IC50 (HDAC1)	CL renal ([1]; IV 1 mg/kg)
Nc1ccc(-c2ccccc2)cc1NC(=O)c1ccc2c(c1)CC(=O)N2CCN1CCOCC1 [Compound 013]	70 to 80 nM	1.67 to 16.7 mL/min/kg	2700 to 2800 ng·h/mL	1 to 5 h	1900 to 1950 ng/mL	11800 ng·h/mL	1 to 5 h	80 to 90%	1040 to 1050 nM	25 to 35 nM	–
Cn1cnc2ccc(C(=O)Nc3cc(-c4cccs4)ccc3N)cc21 [Compound 010]	210 to 220 nM	–	–	–	–	–	–	–	985 to 995 nM	375 to 380 nM	–
Cn1cnc2cc(C(=O)Nc3cc(-c4cccs4)ccc3N)ccc21 [Compound 019]	35 to 40 nM	–	–	–	–	–	–	–	690 to 700 nM	15 to 20 nM	–
CNCCCOc1ccc2cc(C(=O)Nc3cc(-c4cccs4)ccc3N)cnc2c1 [Compound 026]	20 to 25 nM	–	–	–	–	–	–	–	85 to 95 nM	25 to 30 nM	–
CN1C(=O)C(C)(C)c2cc(C(=O)Nc3cc(-c4cccs4)ccc3N)ccc21 [Compound 014]	2140 to 2150 nM	–	–	–	–	–	–	–	3370 to 3380 nM	4180 to 4200 nM	–
COCCN(C)c1ccc2cc(C(=O)Nc3cc(-c4cccs4)ccc3N)cnc2c1 [Compound 030]	155 to 160 nM	–	1 to 5 ng·h/mL	< 0.5 h	–	–	–	–	1200 to 1230 nM	50 to 55 nM	< 1.67 mL/min/kg
Nc1ccc(-c2cccs2)cc1NC(=O)c1ccc2c(c1)CC(=O)N2CC1CC1 [Compound 011]	35 to 40 nM	1.67 to 16.7 mL/min/kg	2000 to 2100 ng·h/mL	5 to 10 h	700 to 750 ng/mL	8000 to 8100 ng·h/mL	5 to 10 h	80 to 90%	490 to 500 nM	10 to 15 nM	–
Nc1ccc(-c2cccs2)cc1NC(=O)c1ccc2c(c1)CC(=O)N2 [Compound 004]	25 to 30 nM	0.167 to 8.33 mL/min/kg	10600 to 10800 ng·h/mL	15 to 20 h	3500 to 3550 ng/mL	61200 to 61400 ng·h/mL	10 to 15 h	110 to 115%	530 to 540 nM	5 to 10 nM	–
Nc1ccc(-c2cccs2)cc1NC(=O)c1ccc2c(c1)CC(=O)N2CCN1CCOCC1 [Compound 003]	5 to 25 nM	1.67 to 16.7 mL/min/kg	1800 to 1900 ng·h/mL	5 to 10 h	950 to 1000 ng/mL	11400 to 11600 ng·h/mL	5 to 10 h	130 to 140%	145 to 590 nM	1 to 10 nM	–
Nc1ccc(-c2ccccc2)cc1NC(=O)c1ccc2c(c1)CC(=O)N2CC1CC1 [Compound 002]	45 to 50 nM	0.167 to 8.33 mL/min/kg	6500 to 6600 ng·h/mL	1 to 5 h	2450 to 2500 ng/mL	22400 ng·h/mL	5 to 10 h	65 to 75%	925 to 935 nM	20 to 25 nM	–
Nc1ccc(-c2cccs2)cc1NC(=O)c1ccc2[nH]c(C3CC3)nc2c1 [Compound 009]	40 to 45 nM	0.167 to 8.33 mL/min/kg	10800 ng·h/mL	15 to 20 h	4150 to 4200 ng/mL	65200 to 65400 ng·h/mL	10 to 15 h	115 to 125%	470 to 480 nM	10 to 15 nM	–
Nc1ccc(-c2ccccc2)cc1NC(=O)c1ccc2c(c1)ncn2CCN1CCOCC1 [Compound 017]	10 to 20 nM	–	–	–	–	–	–	–	450 to 460 nM	1 to 10 nM	–
CN1CCN(c2ccc3cc(C(=O)Nc4cc(-c5nccn5C)ccc4N)cnc3c2)CC1 [Compound 027]	> 2000 nM	–	–	–	–	–	–	–	> 2000 nM	> 2000 nM	–
CN1C(=O)Cc2cc(C(=O)Nc3cc(-c4ccc(O)cc4)ccc3N)ccc21 [Compound 007]	60 to 65 nM	–	–	–	–	–	–	–	2740 to 2750 nM	25 to 30 nM	–
Cc1nc2ccc(C(=O)Nc3cc(-c4cccs4)ccc3N)cc2[nH]1 [Compound 020]	25 to 30 nM	–	–	–	–	–	–	–	1300 to 1310 nM	5 to 10 nM	–
CN1C(=O)Cc2cc(C(=O)Nc3cc(-c4ccco4)ccc3N)ccc21 [Compound 015]	30 to 40 nM	–	–	–	–	–	–	–	640 to 650 nM	15 to 25 nM	–
Nc1ccc(-c2cccs2)cc1NC(=O)c1ccc2c(c1)ncn2CCN1CCOCC1 [Compound 021]	15 to 20 nM	1.67 to 16.7 mL/min/kg	3700 to 3800 ng·h/mL	1 to 5 h	5250 to 5300 ng/mL	21400 ng·h/mL	1 to 5 h	110 to 120%	430 to 440 nM	5 to 10 nM	–
Nc1ccc(-c2cccs2)cc1NC(=O)c1ccc2c(c1)CC(=O)N2CCCN1CCOCC1 [Compound 016]	5 to 15 nM	–	–	–	–	–	–	–	710 to 720 nM	1 to 10 nM	–
Nc1ccc(-c2cccs2)cc1NC(=O)c1ccc2c(c1)CC(=O)N2CCN1CCCCC1 [Compound 006]	70 to 75 nM	–	–	–	–	–	–	–	1130 to 1140 nM	10 to 15 nM	–

Results, then the compound that gave them:

IC50 (HDAC2)	IV clearance ([1]; IV 1 mg/kg)	AUC ([1]; IV 1 mg/kg, read-out: IV AUC)	half-life ([1]; IV 1 mg/kg, read-out: IV t1/2)	Cmax ([1]; PO 5 mg/kg oral gavage)	AUC [1, 2]	half-life [1, 3]	bioavailability [1]	IC50 (HDAC3)	IC50 (HDAC1)	CL renal ([1]; IV 1 mg/kg)	Compound
20 to 30 nM	0.167 to 8.33 mL/min/kg	29800 to 30000 ng·h/mL	5 to 10 h	8200 to 8250 ng/mL	9450 to 9550 ng·h/mL	15 to 20 h	60 to 70%	875 to 885 nM	25 to 35 nM	–	CN1C(=O)Cc2cc(C(=O)Nc3cc(-c4ccccc4)ccc3N)ccc21 [Compound 012]
50 to 60 nM	–	–	–	–	–	–	–	290 to 300 nM	50 to 60 nM	–	Nc1ccc(-c2cccs2)cc1NC(=O)c1ccc2nc(N3CCNCC3)ccc2c1 [Compound 028]
5 to 10 nM	–	20 to 25 ng·h/mL	15 to 20 h	–	–	–	–	15 to 90 nM	< 5 nM	< 8.33 mL/min/kg	CN(C)CCNc1ccc2cc(C(=O)Nc3cc(-c4cccs4)ccc3N)ncc2c1 [Compound 024]
1240 to 1250 nM	–	–	–	–	–	–	–	1210 to 1220 nM	885 to 895 nM	–	Nc1ccc(-c2cccs2)cc1NC(=O)c1ccc2ncn(CCN3CCOCC3)c2c1 [Compound 022]
10 to 15 nM	–	40000 to 40200 ng·h/mL	–	6950 to 7000 ng/mL	140000 ng·h/mL	–	65 to 75%	340 to 350 nM	5 to 10 nM	–	CN1C(=O)Cc2cc(C(=O)Nc3cc(-c4cccs4)ccc3N)ccc21 [Compound 001]
> 2000 nM	–	–	–	–	–	–	–	> 2000 nM	625 to 650 nM	–	Nc1ccc(-c2ccccc2)cc1NC(=O)c1ccc2ncn(CCN3CCOCC3)c2c1 [Compound 008]
15 to 25 nM	–	1 to 5 ng·h/mL	0.5 to 1 h	–	–	–	–	240 to 250 nM	< 5 nM	< 3.33 mL/min/kg	CN(C)CCN(C)c1ccc2cc(C(=O)Nc3cc(-c4cccs4)ccc3N)cnc2c1 [Compound 031]
50 to 105 nM	–	20 to 25 ng·h/mL	1 to 3 h	–	–	–	–	750 to 760 nM	15 to 25 nM	< 1.67 mL/min/kg	COCCNc1ccc2cc(C(=O)Nc3cc(-c4cccs4)ccc3N)cnc2c1 [Compound 029]
25 to 35 nM	–	< 15 ng·h/mL	0.5 to 2 h	–	–	–	–	280 to 300 nM	5 to 10 nM	< 8.33 mL/min/kg	CN1CCN(c2ccc3cc(C(=O)Nc4cc(-c5cccs5)ccc4N)cnc3c2)CC1 [Compound 032]
15 to 20 nM	–	15 to 20 ng·h/mL	1 to 5 h	–	–	–	–	110 to 200 nM	5 to 15 nM	< 8.33 mL/min/kg	CN(C)CCNc1ccc2cc(C(=O)Nc3cc(-c4cccs4)ccc3N)cnc2c1 [Compound 025]
20 to 35 nM	0.167 to 8.33 mL/min/kg	19600 to 19800 ng·h/mL	10 to 15 h	5550 to 5600 ng/mL	81800 to 82000 ng·h/mL	5 to 10 h	75 to 85%	150 to 235 nM	1 to 10 nM	–	Nc1ccc(-c2cccs2)cc1NC(=O)c1ccc2[nH]cnc2c1 [Compound 018]
